Reference: ChEMBL document CHEMBL1122221, “Antimycotic azoles. 6. Synthesis and antifungal properties of terconazole, a novel triazole ketal” (1983)

How the values were obtained:
[1] = test system: Phialophora verrucosa; test: Concentration for marked inhibition of growth of Phialophora verrucosa in Sabouraud broth; format: functional, organism-based
[2] = test system: Trichophyton rubrum; test: Concentration for marked inhibition of growth of Trichophyton rubrum in Sabouraud broth; format: functional, organism-based
[3] = test system: Candida tropicalis; test: Concentration for marked inhibition of growth of Candida tropicalis in Sabouraud broth with 10% inactive bovine serum; format: functional, organism-based
[4] = test system: Candida tropicalis; test: Concentration for complete inhibition of growth of Candida tropicalis; format: functional, organism-based
[5] = test system: Trichophyton benhamiae; test: Concentration for marked inhibition of growth of Trichophyton mentagrophytes in Sabouraud broth with 10% inactive bovine serum; format: functional, organism-based; conditions: Arthroderma benhamiae
[6] = test system: Candida albicans; test: Concentration for complete inhibition of growth of Candida albicans in Sabouraud broth with 10% inactive bovine serum; format: functional, organism-based
[7] = test system: Aspergillus fumigatus; test: Concentration for complete inhibition of growth of Aspergillus fumigatus; format: functional, organism-based
[8] = test system: Trichophyton benhamiae; test: Concentration for complete inhibition of growth of Trichophyton mentagrophytes in Sabouraud broth with 10% inactive bovine serum; format: functional, organism-based; conditions: Arthroderma benhamiae
[9] = test system: Mucor; test: Concentration for marked inhibition of growth of Mucor sp. in Sabouraud broth; format: functional
[10] = test system: Sporothrix schenckii; test: Concentration for marked inhibition of growth of Sporothrix schenck ii in Sabouraud broth with 10% inactive bovine serum; format: functional, organism-based
[11] = test system: Saprolegnia; test: Concentration for marked inhibition of growth of Saprolegnia sp. in Sabouraud broth with 10% inactive bovine serum; format: functional, organism-based
[12] = test system: Mucor; test: Concentration for complete inhibition of growth of Mucor sp.; format: functional
[13] = test system: Cryptococcus neoformans; test: Concentration for complete inhibition of growth of Cryptococcus neoformans in Sabouraud broth with 10% inactive bovine serum; format: functional, organism-based
[14] = test system: Candida albicans; test: Concentration for complete inhibition of growth of Candida albicans; format: functional, organism-based
[15] = test system: Aspergillus fumigatus; test: Concentration for marked inhibition of growth of Aspergillus fumigatus in Sabouraud broth with 10% inactive bovine serum; format: functional, organism-based
[16] = test system: Trichophyton rubrum; test: Concentration for complete inhibition of growth of Trichophyton rubrum; format: functional, organism-based
[17] = test system: Saprolegnia; test: Concentration for marked inhibition of growth of Saprolegnia sp. in Sabouraud broth; format: functional, organism-based
[18] = test system: Sporothrix schenckii; test: Concentration for complete inhibition of growth of Sporothrix schenck ii in Sabouraud broth with 10% inactive bovine serum; format: functional, organism-based
[19] = test system: Candida tropicalis; test: Concentration for marked inhibition of growth of Candida tropicalis in Sabouraud broth; format: functional, organism-based
[20] = test system: Trichophyton benhamiae; test: Concentration for complete inhibition of growth of Trichophyton mentagrophytes; format: functional, organism-based; conditions: Arthroderma benhamiae
[21] = test system: Sporothrix schenckii; test: Concentration for complete inhibition of growth of Sporothrix schenck ii; format: functional, organism-based
[22] = test system: Saprolegnia; test: Concentration for complete inhibition of growth of Saprolegnia sp. in Sabouraud broth with 10% inactive bovine serum; format: functional, organism-based
[23] = test system: Sporothrix schenckii; test: Concentration for marked inhibition of growth of Sporo thrix schenck ii in Sabouraud broth; format: functional, organism-based
[24] = test system: Trichophyton benhamiae; test: Concentration for marked inhibition of growth of Trichophyton mentagrophytes in Sabouraud broth; format: functional, organism-based; conditions: Arthroderma benhamiae
[25] = test system: Cryptococcus neoformans; test: Concentration for marked inhibition of growth of Cryptococcus neoformans in Sabouraud broth with 10% inactive bovine serum; format: functional, organism-based
[26] = test system: Phialophora verrucosa; test: Concentration for complete inhibition of growth of Phialophora verrucosa; format: functional, organism-based
[27] = test system: Candida tropicalis; test: Concentration for complete inhibition of growth of Candida tropicalis in Sabouraud broth with 10% inactive bovine serum; format: functional, organism-based
[28] = test system: Trichophyton rubrum; test: Concentration for complete inhibition of growth of Trichophyton rubrum in Sabouraud broth with 10% inactive bovine serum; format: functional, organism-based
[29] = test system: Saprolegnia; test: Concentration for complete inhibition of growth of Saprolegnia sp.; format: functional, organism-based
[30] = test system: Cryptococcus neoformans; test: Concentration for marked inhibition of growth of Cryptococcus neoformans in Sabouraud broth; format: functional, organism-based
[31] = test system: Rattus norvegicus; test: Evaluated for cure against vaginal candidosis after 3 days of 2 times a day topical treatment with 0.5% of compound in a group of 48 rats; format: functional
[32] = test system: Aspergillus fumigatus; test: Concentration for marked inhibition of growth of Aspergillus fumigatus in Sabouraud broth; format: functional, organism-based
[33] = test system: Mucor; test: Concentration for complete inhibition of growth of Mucor sp. in Sabouraud broth with 10% inactive bovine serum; format: functional
[34] = test system: Trichophyton rubrum; test: Concentration for marked inhibition of growth of Trichophyton rubrum in Sabouraud broth with 10% inactive bovine serum; format: functional, organism-based
[35] = test system: Microsporum canis; test: Concentration for complete inhibition of growth of Microsporum canis; format: functional, organism-based
[36] = test system: Microsporum canis; test: Concentration for complete inhibition of growth of Microsporum canis in Sabouraud broth with 10% inactive bovine serum; format: functional, organism-based
[37] = test system: Phialophora verrucosa; test: Concentration for complete inhibition of growth of Phialophora verrucosa in Sabouraud broth with 10% inactive bovine serum; format: functional, organism-based
[38] = test system: Cavia porcellus; test: Evaluated for cure against trichophytosis after 12 days of one time a day topical treatment with 0.5% of compound in a group of 20 guinea pigs; format: functional
[39] = test system: Microsporum canis; test: Concentration for marked inhibition of growth of Microsporum canis in Sabouraud broth; format: functional, organism-based
[40] = test system: Candida albicans; test: Concentration for marked inhibition of growth of Candida albicans in Sabouraud broth; format: functional, organism-based
[41] = test system: Phialophora verrucosa; test: Concentration for marked inhibition of growth of Phialophora verrucosa in Sabouraud broth with 10% inactive bovine serum; format: functional, organism-based
[42] = test system: Cryptococcus neoformans; test: Concentration for complete inhibition of growth of Cryptococcus neoformans; format: functional, organism-based
[43] = test system: Microsporum canis; test: Concentration for marked inhibition of growth of Microsporum canis in Sabouraud broth with 10% inactive bovine serum; format: functional, organism-based
[44] = test system: Rattus norvegicus; test: Evaluated for marked improvement against vaginal candidosis after 3 days of 2 times a day topical treatment with 0.5% of compound in a group of 48 rats; Improved; format: functional
[45] = test system: Candida albicans; test: Concentration for marked inhibition of growth of Candida albicans in Sabouraud broth with 10% inactive bovine serum; format: functional, organism-based
[46] = test system: Cavia porcellus; test: Evaluated for marked improvement against trichophytosis after 12 days of one time a day topical treatment with 0.5% of compound in a group of 20 guinea pigs; Improved; format: functional
[47] = test system: Cavia porcellus; test: Evaluated for cure against microsporosis after 12 days of one time a day topical treatment with 0.5% of compound in a group of 36 guinea pigs; format: functional
[48] = test system: Cavia porcellus; test: Evaluated for marked improvement against microsporosis after 12 days of one time a day topical treatment with 0.5% of compound in a group of 36 guinea pigs; Improved; format: functional
[49] = test system: Aspergillus fumigatus; test: Concentration for complete inhibition of growth of Aspergillus fumigatus in Sabouraud broth with 10% inactive bovine serum; format: functional, organism-based
[50] = test system: Mucor; test: Concentration for marked inhibition of growth of Mucor sp. in Sabouraud broth with 10% inactive bovine serum; format: functional
[51] = test system: Phialophora verrucosa; test: Concentration for complete inhibition of growth of Phialophora uerrucosa; format: functional, organism-based
[52] = test system: Cavia porcellus; test: Evaluated for cure against trichophytosis after topical treatment with 1% of compound in a group of 6 guinea pigs; format: functional
[53] = test system: Cavia porcellus; test: Evaluated for cure against microsporosis after topical treatment with 1% of compound in a group of 8 guinea pigs; format: functional
[54] = test system: Cavia porcellus; test: Evaluated for marked improvement against microsporosis after topical treatment with 0.5% of compound in a group of 8 guinea pigs; format: functional
[55] = test system: Sporothrix schenckii; test: Concentration for complete inhibition of growth of Sporo thrix schenck ii; format: functional, organism-based
[56] = test system: Cryptococcus neoformans; test: Concentration for complete inhibition of growth of Cryptococcus neo formans; format: functional, organism-based
[57] = test system: Rattus norvegicus; test: Evaluated for cure against vaginal candidosis after topical treatment with 1% of compound in a group of 10 rats; format: functional
[58] = test system: Rattus norvegicus; test: Evaluated for marked improvement against vaginal candidosis after topical treatment with 0.5% of compound in a group of 10 rats; format: functional
[59] = test system: Cavia porcellus; test: Evaluated for marked improvement against trichophytosis after topical treatment with 0.5% of compound in a group of 6 guinea pigs; format: functional

## CC(C)N1CCN(c2ccc(OCC3COC(Cn4cncn4)(c4ccc(Cl)cc4Cl)O3)cc2)CC1 (configuration not stated) [TERCONAZOLE]
[1]
  Concentration: 10 µg/mL
[2]
  Concentration: 10 µg/mL
[3]
  Concentration: 0.1 µg/mL
[4]
  Concentration: 10 µg/mL
[5]
  Concentration: 0.1 µg/mL
[6]
  Concentration: 100 µg/mL
[7]
  Concentration: > 100 µg/mL
[8]
  Concentration: 1 µg/mL
[9]
  Concentration: > 100 µg/mL
[10]
  Concentration: 1 µg/mL
[11]
  Concentration: 1 µg/mL
[12]
  Concentration: > 100 µg/mL
[13]
  Concentration: 1 µg/mL
[14]
  Concentration: > 100 µg/mL
[15]
  Concentration: 100 µg/mL
[16]
  Concentration: 100 µg/mL
[17]
  Concentration: 10 µg/mL
[18]
  Concentration: 100 µg/mL
[19]
  Concentration: 1 µg/mL
[20]
  Concentration: 1 µg/mL
[21]
  Concentration: 100 µg/mL
[22]
  Concentration: 10 µg/mL
[23]
  Concentration: 100 µg/mL
[24]
  Concentration: 1 µg/mL
[25]
  Concentration: 0.1 µg/mL
[26]
  Concentration: 100 µg/mL
[27]
  Concentration: 1 µg/mL
[28]
  Concentration: 10 µg/mL
[29]
  Concentration: 100 µg/mL
[30]
  Concentration: 1 µg/mL
[31]
  Cure: 35
[32]
  Concentration: > 100 µg/mL
[33]
  Concentration: 100 µg/mL
[34]
  Concentration: 1 µg/mL
[35]
  Concentration: 100 µg/mL
[36]
  Concentration: 100 µg/mL
[37]
  Concentration: 10 µg/mL
[38]
  Cure: 20
[39]
  Concentration: 100 µg/mL
[40]
  Concentration: 10 µg/mL
[41]
  Concentration: 1 µg/mL
[42]
  Concentration: 10 µg/mL
[43]
  Concentration: 10 µg/mL
[44]
  Activity: 2
[45]
  Concentration: 0.1 µg/mL
[46]
  Activity: 0
[47]
  Cure: 19
[48]
  Activity: 17
[49]
  Concentration: > 100 µg/mL
[50]
  Concentration: 100 µg/mL

## Clc1ccccc1C(c1ccccc1)(c1ccccc1)n1ccnc1 [CLOTRIMAZOLE]
[4]
  Concentration: > 100 µg/mL
[51]
  Concentration: > 100 µg/mL
[7]
  Concentration: 100 µg/mL
[12]
  Concentration: > 100 µg/mL
[14]
  Concentration: > 100 µg/mL
[16]
  Concentration: < 1 µg/mL
[20]
  Concentration: < 1 µg/mL
[52]
  Cure: 3
[53]
  Cure: 4
[29]
  Concentration: > 100 µg/mL
[54]
  Improved: 1
[35]
  Concentration: < 1 µg/mL
[55]
  Concentration: > 100 µg/mL
[56]
  Concentration: > 100 µg/mL
[57]
  Cure: 2
[58]
  Improved: 2
[59]
  Improved: 1
